Results reported in PubChem BioAssay (NCI).
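Briefly, cells in 96-well plates were exposed to five compound concentrations for 48 h, and endpoints were estimated by linear interpolation. GI50 marks 50% less growth. Definition used: TGI = concentration required for complete inhibition of growth.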

Columns and labels:
Assay in all cases: DTP human tumour cell line panel, 48 h
[1] = tested on: OVCAR-5 ovarian
[2] = tested on: HT29 colon
[3] = tested on: SN12C renal
[4] = tested on: TK-10 renal
[5] = tested on: SNB-19 CNS
[6] = tested on: NCI-H460 lung
[7] = tested on: UACC-62 melanoma
[8] = tested on: A498 renal
[9] = tested on: SF-295 CNS
[10] = tested on: COLO 205 colon
[11] = tested on: SK-MEL-5 melanoma
[12] = tested on: ACHN renal
[13] = tested on: NCI-H23 lung
[14] = tested on: SNB-75 CNS
[15] = tested on: HCT-15 colon
[16] = tested on: DU-145 prostate
[17] = tested on: BT-549 breast
[18] = tested on: M14 melanoma
[19] = tested on: UACC-257 melanoma
[20] = tested on: OVCAR-4 ovarian
[21] = tested on: HS 578T breast
[22] = tested on: MDA-MB-435
[23] = tested on: NCI-H522 lung
[24] = tested on: PC-3 prostate
[25] = tested on: UO-31 renal
[26] = tested on: U251 CNS
[27] = tested on: SK-MEL-2 melanoma
[28] = tested on: IGROV1 ovarian
[29] = tested on: HOP-62 NSCLC
[30] = tested on: MCF7 breast
[31] = tested on: KM12 colon
[32] = tested on: CAKI-1 renal
[33] = tested on: HCT-116 colon
[34] = tested on: CCRF-CEM leukemia
[35] = tested on: RPMI-8226 leukemia
[36] = tested on: SK-MEL-28 melanoma
[37] = tested on: SF-268 CNS
[38] = tested on: 786-0 renal
[39] = tested on: SR leukemia
[40] = tested on: HL-60(TB) leukemia
[41] = tested on: MALME-3M melanoma
[42] = tested on: MDA-MB-231 breast
[43] = tested on: A549 NSCLC
[44] = tested on: SF-539 CNS
[45] = tested on: NCI-H226 lung
[46] = tested on: MOLT-4 leukemia
[47] = tested on: HOP-92 NSCLC
[48] = tested on: NCI/ADR-RES ovarian
[49] = tested on: EKVX NSCLC
[50] = tested on: T-47D breast
[51] = tested on: SK-OV-3 ovarian
[52] = tested on: OVCAR-8 ovarian
[53] = tested on: HCC-2998 colon
[54] = tested on: RXF 393 renal
[55] = tested on: SW-620 colon
[56] = tested on: K-562 leukemia
[57] = tested on: LOX IMVI melanoma

C=CCN(C)S(=O)(=O)/N=C1\NC(=O)NC1=C(Cl)Cl
GI50 [1]: 1690 nM
TGI [1]: 3.13 µM
GI50 [2]: 2150 nM
TGI [2]: 4.87 µM
GI50 [3]: 1770 nM
TGI [3]: 3.29 µM
GI50 [4]: 9.07 µM
TGI [4]: > 100 µM
GI50 [5]: 2880 nM
TGI [5]: 9.29 µM
GI50 [6]: 2710 nM
TGI [6]: 7.1 µM
GI50 [7]: 1750 nM
TGI [7]: 3390 nM
GI50 [8]: 12 µM
TGI [8]: 24.6 µM
GI50 [9]: 13.6 µM
TGI [9]: 26.7 µM
GI50 [10]: 2020 nM
TGI [10]: 4.37 µM
GI50 [11]: 2000 nM
TGI [11]: 4.21 µM
GI50 [12]: 1770 nM
TGI [12]: 3180 nM
GI50 [13]: 1850 nM
TGI [13]: 3.6 µM
GI50 [14]: 1820 nM
TGI [14]: 13.1 µM
GI50 [15]: 1630 nM
TGI [15]: 3220 nM
GI50 [16]: 4080 nM
TGI [16]: 13.6 µM
GI50 [17]: 2100 nM
TGI [17]: 4.49 µM
GI50 [18]: 1890 nM
TGI [18]: 3.73 µM
GI50 [19]: 3560 nM
TGI [19]: 17 µM
GI50 [20]: 1820 nM
TGI [20]: 3.36 µM
GI50 [21]: 3640 nM
TGI [21]: 30.1 µM
GI50 [22]: 1930 nM
TGI [22]: 3.86 µM
GI50 [23]: 1970 nM
TGI [23]: 4.16 µM
GI50 [24]: 2350 nM
TGI [24]: 6.2 µM
GI50 [25]: 2820 nM
TGI [25]: 11.9 µM
GI50 [26]: 1870 nM
TGI [26]: 4.05 µM
GI50 [27]: 2900 nM
TGI [27]: 7.76 µM
GI50 [28]: 1840 nM
TGI [28]: 3.65 µM
GI50 [29]: 3280 nM
TGI [29]: 14.4 µM
GI50 [30]: 387 nM
TGI [30]: > 100 µM
GI50 [31]: 437 nM
TGI [31]: 25.6 µM
GI50 [32]: 1720 nM
TGI [32]: 3.15 µM
GI50 [33]: 1840 nM
TGI [33]: 3550 nM
GI50 [34]: 1940 nM
TGI [34]: 4.68 µM
GI50 [35]: 404 nM
TGI [35]: 9.84 µM
GI50 [36]: 1780 nM
TGI [36]: 3.26 µM
GI50 [37]: 3170 nM
TGI [37]: 10.7 µM
GI50 [38]: 2390 nM
TGI [38]: 5.79 µM
GI50 [39]: 693 nM
TGI [39]: 6.68 µM
GI50 [40]: 2060 nM
TGI [40]: 5.31 µM
GI50 [41]: 1850 nM
TGI [41]: 3.58 µM
GI50 [42]: 1860 nM
TGI [42]: 3.42 µM
GI50 [43]: 5.27 µM
TGI [43]: 24 µM
GI50 [44]: 1790 nM
TGI [44]: 3300 nM
GI50 [45]: 2090 nM
TGI [45]: 4.63 µM
GI50 [46]: 2360 nM
TGI [46]: 5.93 µM
GI50 [47]: 1760 nM
TGI [47]: 3400 nM
GI50 [48]: 2120 nM
TGI [48]: 4.91 µM
GI50 [49]: 1820 nM
TGI [49]: 3.64 µM
GI50 [50]: 3250 nM
TGI [50]: > 100 µM
GI50 [51]: 17 µM
TGI [51]: 31 µM
GI50 [52]: 2330 nM
TGI [52]: 5.69 µM
GI50 [53]: 1760 nM
TGI [53]: 3.43 µM
GI50 [54]: 1700 nM
TGI [54]: 3.37 µM
GI50 [55]: 1900 nM
TGI [55]: 3.72 µM

CNC(=O)c1c(NC(=O)c2cccc(C(F)(F)F)c2F)sc2c1CCC(=O)C2
GI50 [3]: 305 nM
TGI [3]: > 100 µM
GI50 [5]: 361 nM
TGI [5]: > 100 µM
GI50 [56]: 174 nM
TGI [56]: > 100 µM
GI50 [12]: 301 nM
TGI [12]: 1030 nM
GI50 [14]: 163 nM
TGI [14]: 0.794 µM
GI50 [17]: 406 nM
TGI [17]: > 100 µM
GI50 [57]: 466 nM
TGI [57]: > 100 µM
GI50 [21]: 379 nM
TGI [21]: > 100 µM
GI50 [24]: 110 nM
TGI [24]: > 100 µM
GI50 [26]: 259 nM
TGI [26]: > 100 µM
GI50 [28]: 483 nM
TGI [28]: > 100 µM
GI50 [29]: 777 nM
TGI [29]: > 100 µM
GI50 [30]: 283 nM
TGI [30]: > 100 µM
GI50 [34]: 109 nM
TGI [34]: > 100 µM
GI50 [35]: 141 nM
TGI [35]: 0.676 µM
GI50 [37]: 357 nM
TGI [37]: > 100 µM
GI50 [39]: 112 nM
TGI [39]: > 100 µM
GI50 [40]: 275 nM
TGI [40]: > 100 µM
GI50 [46]: 341 nM
TGI [46]: > 100 µM
GI50 [47]: 208 nM
TGI [47]: 636 nM
GI50 [52]: 349 nM
TGI [52]: > 100 µM
GI50 [54]: 378 nM
TGI [54]: > 100 µM

O=C(CCC(=O)N1CCOCC1)OCCCCCCSc1ccc([N+](=O)[O-])c2nonc12
GI50 [1]: 1580 nM
TGI [1]: 3.25 µM
GI50 [2]: 1010 nM
TGI [2]: 4.27 µM
GI50 [3]: 1010 nM
TGI [3]: 2.3 µM
GI50 [4]: 4.1 µM
TGI [4]: 13.3 µM
GI50 [5]: 1610 nM
TGI [5]: 4.71 µM
GI50 [6]: 1700 nM
TGI [6]: 3.82 µM
GI50 [7]: 1010 nM
TGI [7]: 2360 nM
GI50 [8]: 1.85 µM
TGI [8]: 4.26 µM
GI50 [56]: 259 nM
TGI [56]: > 100 µM
GI50 [9]: 2.46 µM
TGI [9]: 7.21 µM
GI50 [10]: 1890 nM
TGI [10]: 4.59 µM
GI50 [11]: 1700 nM
TGI [11]: 3.29 µM
GI50 [12]: 472 nM
TGI [12]: 1680 nM
GI50 [13]: 1390 nM
TGI [13]: 3 µM
GI50 [14]: 490 nM
TGI [14]: 17 µM
GI50 [15]: 267 nM
TGI [15]: 1120 nM
GI50 [16]: 1400 nM
TGI [16]: 2.71 µM
GI50 [17]: 939 nM
TGI [17]: 2.17 µM
GI50 [18]: 1320 nM
TGI [18]: 2.89 µM
GI50 [19]: 1630 nM
TGI [19]: 3.66 µM
GI50 [20]: 1820 nM
TGI [20]: 3.8 µM
GI50 [21]: 1690 nM
TGI [21]: 5.99 µM
GI50 [22]: 1160 nM
TGI [22]: 2.5 µM
GI50 [23]: 853 nM
TGI [23]: 3.93 µM
GI50 [24]: 1600 nM
TGI [24]: 4.19 µM
GI50 [25]: 418 nM
TGI [25]: 2.26 µM
GI50 [26]: 640 nM
TGI [26]: 2.7 µM
GI50 [27]: 2480 nM
TGI [27]: 6.68 µM
GI50 [28]: 1010 nM
TGI [28]: 2.24 µM
GI50 [29]: 1740 nM
TGI [29]: 4.45 µM
GI50 [30]: 334 nM
TGI [30]: 1.92 µM
GI50 [31]: 2700 nM
TGI [31]: 7.77 µM
GI50 [32]: 1520 nM
TGI [32]: 3.95 µM
GI50 [33]: 410 nM
TGI [33]: 1670 nM
GI50 [34]: 284 nM
TGI [34]: 3.85 µM
GI50 [35]: 401 nM
TGI [35]: 3.35 µM
GI50 [36]: 1620 nM
TGI [36]: 3.11 µM
GI50 [37]: 1650 nM
TGI [37]: 5.25 µM
GI50 [38]: 1400 nM
TGI [38]: 4.15 µM
GI50 [39]: 239 nM
TGI [39]: 2.16 µM
GI50 [40]: 313 nM
TGI [40]: 1.62 µM
GI50 [41]: 1150 nM
TGI [41]: 2.51 µM
GI50 [42]: 1390 nM
TGI [42]: 3.08 µM
GI50 [43]: 2.9 µM
TGI [43]: 12 µM
GI50 [44]: 666 nM
TGI [44]: 1990 nM
GI50 [45]: 1440 nM
TGI [45]: 3.81 µM
GI50 [46]: 410 nM
TGI [46]: 3.49 µM
GI50 [47]: 1240 nM
TGI [47]: 2830 nM
GI50 [48]: 759 nM
TGI [48]: 4.44 µM
GI50 [49]: 1550 nM
TGI [49]: 3.26 µM
GI50 [50]: 2030 nM
TGI [50]: 5.11 µM
GI50 [51]: 3.85 µM
TGI [51]: 16.9 µM
GI50 [52]: 827 nM
TGI [52]: 9.25 µM
GI50 [53]: 1680 nM
TGI [53]: 3.16 µM
GI50 [54]: 574 nM
TGI [54]: 1.96 µM
GI50 [55]: 479 nM
TGI [55]: 2.28 µM
